Results on 23 compounds are retold here after US9212171B2, “Ethynyl compounds” (Hoffmann-La Roche Inc., priority 2011, dated 2015).

The test addresses human mGlu5a receptor (Homo sapiens (Human), UniProt P41594). The test is described as follows: Intracellular Ca2+ mobilization assay (mGlu5 PAM). In kind it is cell-based. The settings on record: for EC50: HEK-293 cells stably transfected with human mGlu5a, L-glutamate added at EC20 (typically around 80 μM); for Emax: maximal response in % of the maximal stimulatory effect obtained with saturating concentrations of L-glutamate, read-out: Eff. (%). The procedure: A monoclonal HEK-293 cell line stably transfected with a cDNA encoding for the human mGlu5a receptor was generated; for the work with mGlu5 Positive Allosteric Modulators (PAMs), a cell line with low receptor expression levels and low constitutive receptor activity was selected to allow the differentiation of agonistic versus PAM activity. Cells were cultured according to standard protocols (Freshney, 2000) in Dulbecco's Modified Eagle Medium with high glucose supplemented with 1 mM glutamine, 10% (vol/vol) heat-inactivated bovine calf serum, Penicillin/Streptomycin, […] hygromycin and 15 μg/ml blasticidin (all cell culture reagents and antibiotics from Invitrogen, Basel, Switzerland).
About 24 hrs before an experiment, 5×10^4 cells/well were seeded in poly-D-lysine coated, black/clear-bottomed 96-well plates. The cells were loaded with 2.5 μM Fluo-4AM in loading buffer (1×HBSS, 20 mM HEPES) for 1 hr at 37° C. and washed five times with loading buffer. The cells were transferred into a Functional Drug Screening System 7000 (Hamamatsu, Paris, France), and 11 half logarithmic serial dilutions of test compound at 37° C. were added and the cells were incubated for 10-30 min. with on-line recording of fluorescence. Following this pre-incubation step, the agonist L-glutamate was added to the cells at a concentration corresponding to EC20 (typically around 80 μM) with on-line recording of fluorescence; in order to account for day-to-day variations in the responsiveness of cells, the EC20 of glutamate was determined immediately ahead of each experiment by recording of a full dose-response curve of glutamate.
Responses were measured as peak increase in fluorescence minus basal (i.e. fluorescence without addition of L-glutamate), normalized to the maximal stimulatory effect obtained with saturating concentrations of L-glutamate. Graphs were plotted with the % maximal stimulatory using XLfit, a curve fitting program that iteratively plots the data using Levenburg Marquardt algorithm. The single site competition analysis equation used was y=A+((B−A)/(1+((x/C)D))), where y is the % maximal stimulatory effect, A is the minimum y, B is the maximum y, C is the EC50, x is the log 10 of the concentration of the competing compound and D is the slope of the curve (the Hill Coefficient). From these curves the EC50 (concentration at which half maximal stimulation was achieved), the Hill coefficient as well as the maximal response in % of the maximal stimulatory effect obtained with saturating concentrations of L-glutamate were calculated.
A depression of the signal observed after addition of the EC20 concentration of L-glutamate was indicative of an inhibitory activity of the test compound.
For orientation: Calcium assays in cells follow changes in intracellular calcium, usually with a dye or a luminescent sensor.

Each structure is given as a SMILES string.

Sequence of human mGlu5a receptor (P41594 other isoform, or with tags, fused parts or gaps): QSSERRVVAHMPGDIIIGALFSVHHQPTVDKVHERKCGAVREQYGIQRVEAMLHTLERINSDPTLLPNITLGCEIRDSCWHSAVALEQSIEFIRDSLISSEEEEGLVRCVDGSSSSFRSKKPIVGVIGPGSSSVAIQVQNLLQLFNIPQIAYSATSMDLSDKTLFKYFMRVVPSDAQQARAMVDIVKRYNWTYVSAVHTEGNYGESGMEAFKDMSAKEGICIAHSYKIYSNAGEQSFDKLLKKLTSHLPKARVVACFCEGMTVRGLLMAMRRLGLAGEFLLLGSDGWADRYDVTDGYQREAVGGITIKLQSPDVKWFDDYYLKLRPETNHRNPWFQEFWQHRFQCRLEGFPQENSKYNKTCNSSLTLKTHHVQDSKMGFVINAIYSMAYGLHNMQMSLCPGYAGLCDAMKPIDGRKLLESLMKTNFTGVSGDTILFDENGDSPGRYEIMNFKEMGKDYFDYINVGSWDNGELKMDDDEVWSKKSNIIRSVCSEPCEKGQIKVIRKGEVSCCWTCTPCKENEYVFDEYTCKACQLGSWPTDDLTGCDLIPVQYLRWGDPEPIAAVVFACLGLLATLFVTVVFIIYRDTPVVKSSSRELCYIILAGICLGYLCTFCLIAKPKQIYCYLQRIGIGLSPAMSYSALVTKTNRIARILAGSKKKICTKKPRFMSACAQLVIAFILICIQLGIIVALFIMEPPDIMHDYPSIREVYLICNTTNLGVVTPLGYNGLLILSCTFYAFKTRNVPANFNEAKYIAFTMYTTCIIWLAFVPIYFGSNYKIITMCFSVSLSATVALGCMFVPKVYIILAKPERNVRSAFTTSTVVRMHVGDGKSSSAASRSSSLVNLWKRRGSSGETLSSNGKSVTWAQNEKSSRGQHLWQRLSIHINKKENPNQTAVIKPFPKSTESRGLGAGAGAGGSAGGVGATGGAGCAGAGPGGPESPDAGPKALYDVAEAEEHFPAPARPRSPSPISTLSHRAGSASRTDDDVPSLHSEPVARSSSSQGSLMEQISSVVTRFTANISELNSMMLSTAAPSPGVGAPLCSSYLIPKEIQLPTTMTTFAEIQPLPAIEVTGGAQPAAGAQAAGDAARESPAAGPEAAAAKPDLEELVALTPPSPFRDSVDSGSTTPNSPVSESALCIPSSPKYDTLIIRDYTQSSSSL

What is called EC50 is the concentration that produces a half-maximal response. A low value points to a more potent agent. Turning to `CN1C(=O)[C@@H](c2ccc(C#Cc3ccc(F)cc3)cn2)[C@@H]2CCC[C@@H]21` (racemic) [Example 29, (3RS,3aSR,6aSR)-3-[5-(4-Fluoro-phenylethynyl)-pyridin-2-yl]-1-methyl-hexahydro-cyclopenta[b]pyrrol-2-one], a half-maximal effect (EC50) was put at 78 nM and the Emax stood at 53%.

On to `CN1C(=O)[C@H](c2ccc(C#Cc3ccc(F)cc3)cn2)[C@H]2CCCC[C@H]21` [Example 43, (3S,6R,7R)-3-[5-(4-fluoro-phenylethynyl)-pyridin-2-yl]-1-methyl-octahydro-indol-2-one], for which the EC50 stood at 146 nM and the Emax came out at 53%.

As to `CN1C(=O)C(O)(c2ccc(C#Cc3ccccc3)cn2)CC1(C)C` (racemic) [Example 18, (RS)-3-Hydroxy-1,5,5-trimethyl-3-(5-(phenylethynyl)pyridin-2-yl)pyrrolidin-2-one], the EC50 came out at 414 nM and the Emax worked out at 126%.

With `CN1CCCCC(c2ccc(C#Cc3cccc(F)c3)cn2)C1=O` (racemic) [Example 24, (RS)-3-[5-(3-Fluoro-phenylethynyl)-pyridin-2-yl]-1-methyl-azepan-2-one], it took 39 nM to reach a half-maximal effect (EC50) and the Emax was determined as 69%.

As to `CN1C(=O)[C@@H](c2ccc(C#Cc3cccc(F)c3)cn2)[C@@H]2CCCC[C@@H]21` [Example 40, (3R,6S,7S)-3-[5-(3-Fluoro-phenylethynyl)-pyridin-2-yl]-1-methyl-octahydro-indol-2-one], the EC50 came out at 89 nM and the Emax worked out at 68%.

As to `CN1C(=O)C(c2ncc(C#Cc3cccc(F)c3)cn2)CC1(C)C` (racemic) [Example 7, (RS)-3-(5-((3-fluorophenyl)ethynyl)pyrimidin-2-yl)-1,5,5-trimethylpyrrolidin-2-one], the EC50 was found to be 137 nM and the Emax was found to be 85%.

As to `CN1C(=O)[C@@H](c2ccc(C#Cc3cccc(F)c3)cn2)[C@@H]2CCCC[C@@H]21` (racemic) [Example 38, (3RS,6SR,7SR)-3-[5-(3-Fluoro-phenylethynyl)-pyridin-2-yl]-1-methyl-octahydro-indol-2-one], the EC50 is 69 nM and the Emax is 60%.

Consider `CN1C(=O)[C@H](c2ccc(C#Cc3ccccc3)cn2)[C@@H]2CCCC[C@@H]21` (racemic) [Example 35, (3SR,6SR,7SR)-1-Methyl-3-(5-phenylethynyl-pyridin-2-yl)-octahydro-indol-2-one], for which the EC50 worked out at 101 nM and the Emax turned out to be 60%.

For the compound `CN1C(=O)C(c2ccc(C#Cc3cccc(F)c3)cn2)CCC1(C)C` (racemic) [Example 13, (RS)-3-(5-((3-Fluorophenyl)ethynyl)pyridin-2-yl)-1,6,6-trimethylpiperidin-2-one], the EC50 worked out at 98 nM and the Emax is 90%.

On to `CN1C(=O)C(c2ncc(C#Cc3ccccc3)cn2)CC1(C)C` (racemic) [Example 6, (RS)-1,5,5-Trimethyl-3-(5-(phenylethynyl)pyrimidin-2-yl)pyrrolidin-2-one], for which a half-maximal response (EC50) required 130 nM and the Emax was 90%.

Turning to `CN1C(=O)[C@@H](c2ccc(C#Cc3ccccc3)cn2)[C@@H]2CCC[C@@H]21` (racemic) [Example 27, (3RS,3aSR,6aSR)-1-Methyl-3-(5-phenylethynyl-pyridin-2-yl)-hexahydro-cyclopenta[b]pyrrol-2-one], the EC50 worked out at 47 nM and the Emax was determined as 53%.

As to `CN1C(=O)[C@@H](c2ccc(C#Cc3ccccc3)cn2)[C@@H]2CCCC[C@@H]21` [Example 36, (3R,6S,7S)-1-Methyl-3-(5-phenylethynyl-pyridin-2-yl)-octahydro-indol-2-one], the response was half-maximal at 84 nM (EC50) and the Emax was determined as 92%.

With `CN1C(=O)[C@@H](c2ccc(C#Cc3cccc(F)c3)cn2)[C@@H]2CCC[C@@H]21` (racemic) [Example 30, (3RS,3aSR,6aSR)-3-[5-(3-Fluoro-phenylethynyl)-pyridin-2-yl]-1-methyl-hexahydro-cyclopenta[b]pyrrol-2-one], the EC50 was 33 nM and the Emax stood at 57%.

Consider `CN1C(=O)C(c2ccc(C#Cc3ccccc3)cn2)CC1(C)C` (racemic) [Example 1, (RS)-1,5,5-Trimethyl-3-(5-(phenylethynyl)pyridin-2-yl)pyrrolidin-2-one], for which it took 60 nM to reach a half-maximal effect (EC50) and the Emax turned out to be 111%.

Consider `CN1C(=O)[C@H](c2ccc(C#Cc3ccccc3)cn2)[C@H]2CCCC[C@H]21` [Example 37, (3S,6R,7R)-1-Methyl-3-(5-phenylethynyl-pyridin-2-yl)-octahydro-indol-2-one], for which a half-maximal effect (EC50) was put at 84 nM and the Emax worked out at 49%.

As for `CN1C(=O)C(c2ccc(C#Cc3ccccc3)cn2)CCC1(C)C` (racemic) [Example 12, (RS)-1,6,6-Trimethyl-3-(5-(phenylethynyl)pyridin-2-yl)piperidin-2-one], the EC50 turned out to be 113 nM and the Emax turned out to be 103%.

In the case of `CN1C(=O)C(c2ncc(C#Cc3cccc(F)c3)cn2)CCC1(C)C` (racemic) [Example 17, (RS)-3-(5-((3-fluorophenyl)ethynyl)pyrimidin-2-yl)-1,6,6-trimethylpiperidin-2-one], the EC50 was 132 nM and the Emax is 80%.

Consider `CN1C(=O)C(c2ccc(C#Cc3cccnc3)cn2)CC1(C)C` (racemic) [Example 2, (RS)-1,5,5-Trimethyl-3-(5-(pyridin-3-ylethynyl)pyridin-2-yl)pyrrolidin-2-one], for which the EC50 worked out at 981 nM and the Emax stood at 107%.

In the case of `CN1C(=O)C(c2ccc(C#Cc3ccc(F)cc3)nn2)CC1(C)C` (stereo not shown) [Example 10, 3-(6-((4-fluorophenyl)ethynyl)pyridazin-3-yl)-1,5,5-trimethylpyrrolidin-2-one], the EC50 was 247 nM and the Emax is 99%.

Regarding `CN1C(=O)C(c2ncc(C#Cc3ccc(F)cc3)cn2)CCC1(C)C` (racemic) [Example 16, (RS)-3-(5-((4-Fluorophenyl)ethynyl)pyrimidin-2-yl)-1,6,6-trimethylpiperidin-2-one], the EC50 is 573 nM and the Emax turned out to be 96%.

With `CN1C(=O)C(c2ccc(C#Cc3cccc(F)c3)nn2)CC1(C)C` (racemic) [Example 9, (RS)-3-(6-((3-Fluorophenyl)ethynyl)pyridazin-3-yl)-1,5,5-trimethylpyrrolidin-2-one], the EC50 amounted to 34 nM and the Emax worked out at 88%.

As for `CN1C(=O)[C@H](c2ccc(C#Cc3ccnc(Cl)c3)cn2)CC1(C)C` (single isomer, unassigned) [Example 46, (R) or (S)-3-[5-(2-Chloro-pyridin-4-ylethynyl)-pyridin-2-yl]-1,5,5-trimethyl-pyrrolidin-2-one], the EC50 worked out at 103 nM and the Emax was determined as 40%.

For the compound `CN1C(=O)[C@H](c2ccc(C#Cc3cccc(F)c3)cn2)[C@H]2CCC[C@H]21` (single isomer, unassigned) [Example 32, (3S,3aR,6aR) or (3R,3aS,6aS)-3-[5-(3-Fluoro-phenylethynyl)-pyridin-2-yl]-1-methyl-hexahydro-cyclopenta[b]pyrrol-2-one], the EC50 came out at 48 nM and the Emax came out at 68%.
